System: 475296-252-R-J1-PDC spheroid viability
Test: Anticancer human tumor 475296-252-R-J1-PDC patient-derived rectal carcinoma cell line growth inhibition [PI3K]
Conditions: spheroids with HUVEC and MSC; for IC50: curve of first compound; for viability, T/C: stronger effect = lower value
How it was run: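 Targeted small molecules plus PI3K inhibitors, half-log dose series from Cmax (default top 10 microM), were applied to heterotypic spheroids of cancer cells with HUVEC and MSCs. Viability indicated growth inhibition.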

[1] = second compound 0.00316 µM, first compound 0.00316 µM
[2] = second compound 0.00316 µM, first compound 0.01 µM
[3] = second compound 0.00316 µM, first compound 0.0316 µM
[4] = second compound 0.00316 µM, first compound 0.1 µM
[5] = second compound 0.01 µM, first compound 0.00316 µM
[6] = second compound 0.01 µM, first compound 0.01 µM
[7] = second compound 0.01 µM, first compound 0.0316 µM
[8] = second compound 0.01 µM, first compound 0.1 µM
[9] = second compound 0.0316 µM, first compound 0.00316 µM
[10] = second compound 0.0316 µM, first compound 0.01 µM
[11] = second compound 0.0316 µM, first compound 0.0316 µM
[12] = second compound 0.0316 µM, first compound 0.1 µM
[13] = second compound 0.1 µM, first compound 0.00316 µM
[14] = second compound 0.1 µM, first compound 0.01 µM
[15] = second compound 0.1 µM, first compound 0.0316 µM
[16] = second compound 0.1 µM, first compound 0.1 µM
[17] = second compound 0.316 µM, first compound 0.00316 µM
[18] = second compound 0.316 µM, first compound 0.01 µM
[19] = second compound 0.316 µM, first compound 0.0316 µM
[20] = second compound 0.316 µM, first compound 0.1 µM
[21] = second compound 1 µM, first compound 0.00316 µM
[22] = second compound 1 µM, first compound 0.01 µM
[23] = second compound 1 µM, first compound 0.0316 µM
[24] = second compound 1 µM, first compound 0.1 µM
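Also: spheroids exposed to agents for seven days before readout.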

Molecule `CC(C)n1nc(-c2ccc3oc(N)nc3c2)c2c(N)ncnc21` + CC(Nc1ccc2c(c1)OCCn1cc(N3C(=O)OCC3C(F)F)nc1-2)C(N)=O has an IC50 (second compound 0.00316 µM) greater than 100 nM, an IC50 (second compound 0.01 µM) greater than 100 nM and an IC50 (second compound 0.0316 µM) greater than 100 nM. It also gave an IC50 (second compound 0.1 µM) greater than 100 nM, an IC50 (second compound 0.316 µM) greater than 100 nM and an IC50 (second compound 1 µM) greater than 100 nM. For the same molecule, the viability, T/C (second compound 0.00316 µM, first compound 0.000316 µM) was 91%, the viability, T/C (second compound 0.00316 µM, first compound 0.001 µM) was 83.2% and the viability, T/C [1] was 89.2%. The viability, T/C [2] was 73.2%, the viability, T/C [3] was 74.9% and the viability, T/C [4] was 58.7%. It also gave a viability, T/C (second compound 0.01 µM, first compound 0.000316 µM) of 97.3%, a viability, T/C (second compound 0.01 µM, first compound 0.001 µM) of 81.5% and a viability, T/C [5] of 95.1%. It also gave a viability, T/C [6] of 85.7%, a viability, T/C [7] of 82.3% and a viability, T/C [8] of 61.4%. It also gave a viability, T/C (second compound 0.0316 µM, first compound 0.000316 µM) of 85.5%, a viability, T/C (second compound 0.0316 µM, first compound 0.001 µM) of 113% and a viability, T/C [9] of 94.8%. It also gave a viability, T/C [10] of 89.8%, a viability, T/C [11] of 77.7% and a viability, T/C [12] of 58%. For the same molecule, the viability, T/C (second compound 0.1 µM, first compound 0.000316 µM) was 83.5%, the viability, T/C (second compound 0.1 µM, first compound 0.001 µM) was 88% and the viability, T/C [13] was 92%. For the same molecule, the viability, T/C [14] was 88.6%, the viability, T/C [15] was 77% and the viability, T/C [16] was 59.6%. For the same molecule, the viability, T/C (second compound 0.316 µM, first compound 0.000316 µM) was 83.8%, the viability, T/C (second compound 0.316 µM, first compound 0.001 µM) was 89% and the viability, T/C [17] was 88.8%. The viability, T/C [18] was 82.7%, the viability, T/C [19] was 74% and the viability, T/C [20] was 58.7%. It also gave a viability, T/C (second compound 1 µM, first compound 0.000316 µM) of 87.4%, a viability, T/C (second compound 1 µM, first compound 0.001 µM) of 83.3% and a viability, T/C [21] of 83%. It also gave a viability, T/C [22] of 85.8%, a viability, T/C [23] of 71.1% and a viability, T/C [24] of 55.2%.

With `CCN1CCN(Cc2ccc(Nc3ncc(F)c(-c4cc(F)c5nc(C)n(C(C)C)c5c4)n3)nc2)CC1` + CC(Nc1ccc2c(c1)OCCn1cc(N3C(=O)OCC3C(F)F)nc1-2)C(N)=O the IC50 (second compound 0.00316 µM) was greater than 1000 nM, the IC50 (second compound 0.01 µM) was greater than 1000 nM and the IC50 (second compound 0.0316 µM) was greater than 1000 nM. The IC50 (second compound 0.1 µM) was greater than 1000 nM, the IC50 (second compound 0.316 µM) was greater than 1000 nM and the IC50 (second compound 1 µM) was greater than 1000 nM. For the same molecule, the viability, T/C [1] was 97.2%, the viability, T/C [2] was 82.2% and the viability, T/C [3] was 94%. For the same molecule, the viability, T/C [4] was 86.2%, the viability, T/C (second compound 0.00316 µM, first compound 0.316 µM) was 101% and the viability, T/C (second compound 0.00316 µM, first compound 1 µM) was 89.3%. The viability, T/C [5] was 94.1%, the viability, T/C [6] was 87.8% and the viability, T/C [7] was 95.6%. It also gave a viability, T/C [8] of 85.1%, a viability, T/C (second compound 0.01 µM, first compound 0.316 µM) of 89.5% and a viability, T/C (second compound 0.01 µM, first compound 1 µM) of 87.9%. It also gave a viability, T/C [9] of 95.3%, a viability, T/C [10] of 92.3% and a viability, T/C [11] of 86.7%. It also gave a viability, T/C [12] of 99.3%, a viability, T/C (second compound 0.0316 µM, first compound 0.316 µM) of 87.6% and a viability, T/C (second compound 0.0316 µM, first compound 1 µM) of 81.8%. It also gave a viability, T/C [13] of 81.3%, a viability, T/C [14] of 111% and a viability, T/C [15] of 86.6%. For the same molecule, the viability, T/C [16] was 86%, the viability, T/C (second compound 0.1 µM, first compound 0.316 µM) was 94.3% and the viability, T/C (second compound 0.1 µM, first compound 1 µM) was 71.8%. For the same molecule, the viability, T/C [17] was 85%, the viability, T/C [18] was 96.1% and the viability, T/C [19] was 90.6%. It also gave a viability, T/C [20] of 86.9%, a viability, T/C (second compound 0.316 µM, first compound 0.316 µM) of 85% and a viability, T/C (second compound 0.316 µM, first compound 1 µM) of 71.2%. For the same molecule, the viability, T/C [21] was 83.3%, the viability, T/C [22] was 75.5% and the viability, T/C [23] was 80.5%. The viability, T/C [24] was 76.9%, the viability, T/C (second compound 1 µM, first compound 0.316 µM) was 79.1% and the viability, T/C (second compound 1 µM, first compound 1 µM) was 64.2%.

Source: PubChem BioAssay AID1963980 (Molecular Pharmacology Branch, DTP, NCI, 2024)
